The record followed here is publication PMC9632963, “Preclinical characterization and phase I clinical trial of CT053PTSA targets MET, AXL, and VEGFR2 in patients with advanced solid tumors” (Frontiers in Immunology, 2022).

One data set deals with FLT3 (Homo sapiens, UniProt P36888). In words: Kinase inhibition assay (LANCE or HTRF). Format: biochemical. The settings on record: ATP at Km. (TR-FRET usually uses a lanthanide donor and a delayed reading to cut background.)
The target in a further data set is FRK (Homo sapiens, UniProt P42685). In words: Kinase inhibition assay (LANCE or HTRF). Format: biochemical. The settings on record: ATP at Km.
Sequence of FRK (P42685 whole entry): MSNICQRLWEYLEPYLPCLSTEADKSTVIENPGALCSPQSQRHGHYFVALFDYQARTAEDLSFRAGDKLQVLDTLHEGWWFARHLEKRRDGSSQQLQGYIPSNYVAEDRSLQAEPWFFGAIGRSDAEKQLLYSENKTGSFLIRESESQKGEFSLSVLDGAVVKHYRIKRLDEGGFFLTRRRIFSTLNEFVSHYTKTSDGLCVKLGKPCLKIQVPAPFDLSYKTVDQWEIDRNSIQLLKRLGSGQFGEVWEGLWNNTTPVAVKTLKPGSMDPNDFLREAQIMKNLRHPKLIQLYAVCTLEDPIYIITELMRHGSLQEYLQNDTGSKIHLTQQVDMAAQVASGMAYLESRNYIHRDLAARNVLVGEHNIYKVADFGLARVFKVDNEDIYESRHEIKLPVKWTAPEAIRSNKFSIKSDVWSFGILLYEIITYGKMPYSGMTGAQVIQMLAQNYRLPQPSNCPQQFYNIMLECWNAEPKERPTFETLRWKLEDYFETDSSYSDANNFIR
A further data set deals with HIPK4 (Homo sapiens, UniProt Q8NE63). In words: Kinase inhibition assay (LANCE or HTRF). The data set is classed as biochemical. To be noted: ATP at Km.
Sequence of HIPK4 (Q8NE63 whole entry): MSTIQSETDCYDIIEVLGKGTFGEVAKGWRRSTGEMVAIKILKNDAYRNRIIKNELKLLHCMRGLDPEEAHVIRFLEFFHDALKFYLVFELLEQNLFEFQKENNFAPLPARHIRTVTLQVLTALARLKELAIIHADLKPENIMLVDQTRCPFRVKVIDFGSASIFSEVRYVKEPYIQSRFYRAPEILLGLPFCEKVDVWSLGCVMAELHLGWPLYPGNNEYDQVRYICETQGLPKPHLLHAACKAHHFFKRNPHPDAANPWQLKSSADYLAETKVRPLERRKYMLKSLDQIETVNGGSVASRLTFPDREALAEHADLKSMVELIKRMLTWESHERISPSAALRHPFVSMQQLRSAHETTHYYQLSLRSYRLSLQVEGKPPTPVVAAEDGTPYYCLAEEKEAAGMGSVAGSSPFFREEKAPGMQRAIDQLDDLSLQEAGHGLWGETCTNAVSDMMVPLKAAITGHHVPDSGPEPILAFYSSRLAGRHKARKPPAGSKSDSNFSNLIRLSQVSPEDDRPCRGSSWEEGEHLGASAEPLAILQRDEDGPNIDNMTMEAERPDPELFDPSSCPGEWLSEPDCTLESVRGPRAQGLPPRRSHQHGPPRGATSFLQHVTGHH
For the next data set, the target named is ITK (Homo sapiens, UniProt Q08881). In words: Kinase inhibition assay (LANCE or HTRF). The data set is classed as biochemical. To be noted: ATP at Km.
The target of a further data set is Fer (Homo sapiens, UniProt P16591). In words: Kinase inhibition assay (LANCE or HTRF). The data set is classed as biochemical. To be noted: ATP at Km.
Sequence of Fer (P16591 whole entry): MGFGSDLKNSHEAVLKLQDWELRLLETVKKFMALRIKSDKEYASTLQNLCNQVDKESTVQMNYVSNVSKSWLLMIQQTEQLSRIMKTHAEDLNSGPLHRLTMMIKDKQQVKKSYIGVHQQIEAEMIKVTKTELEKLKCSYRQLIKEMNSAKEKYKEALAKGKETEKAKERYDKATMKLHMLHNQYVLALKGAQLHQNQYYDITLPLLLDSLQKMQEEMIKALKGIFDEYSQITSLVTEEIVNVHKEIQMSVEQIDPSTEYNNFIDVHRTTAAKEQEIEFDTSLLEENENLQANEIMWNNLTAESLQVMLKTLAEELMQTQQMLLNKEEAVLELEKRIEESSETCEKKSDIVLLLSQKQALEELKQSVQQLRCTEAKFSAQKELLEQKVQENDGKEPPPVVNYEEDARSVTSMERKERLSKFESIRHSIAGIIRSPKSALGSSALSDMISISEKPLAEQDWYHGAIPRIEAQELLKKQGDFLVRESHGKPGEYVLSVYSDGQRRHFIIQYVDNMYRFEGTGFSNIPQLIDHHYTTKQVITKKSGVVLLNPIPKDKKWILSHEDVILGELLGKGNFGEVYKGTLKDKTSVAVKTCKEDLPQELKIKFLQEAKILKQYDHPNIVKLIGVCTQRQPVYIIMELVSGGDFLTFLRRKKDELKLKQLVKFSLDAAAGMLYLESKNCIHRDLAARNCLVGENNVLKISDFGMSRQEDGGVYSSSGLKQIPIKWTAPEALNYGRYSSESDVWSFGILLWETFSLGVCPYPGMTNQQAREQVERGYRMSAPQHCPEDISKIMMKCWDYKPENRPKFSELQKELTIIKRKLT
A further data set addresses FLT1 (Homo sapiens, UniProt P17948). In words: Kinase inhibition assay (LANCE or HTRF). The data set is classed as biochemical. To be noted: ATP at Km.
Another data set has as its target RET (Homo sapiens, UniProt P07949). In words: Kinase inhibition assay (LANCE or HTRF). Format: biochemical. The settings on record: ATP at Km.
A further data set concerns the target LnyA (Homo sapiens, UniProt P07948). In words: Kinase inhibition assay (LANCE or HTRF). The data set is classed as biochemical. The settings on record: ATP at Km.
The subject of data set [1] is HUVECs. In words: Endothelial cell tubule formation assay, VEGF-induced. The data set is classed as cell-based. To be noted: Homo sapiens, HUVEC, VEGF 40 ng/ml, 8 hours. From the text:
(§1) Then, after staining with Calcein AM (ThermoFisher, CA, USA), images of tubule formation were captured, and the total tube area was quantified with ImageXpress HCS (Molecular Devices, CA, USA).

The subject of data set [2] is HUVECs. In words: Endothelial cell tubule formation assay, HGF-induced. Format: cell-based. The settings on record: Homo sapiens, HUVEC, HGF 45 ng/ml, 8 hours.
Description: as §1

The test system of another data set is SNU-16. In words: Cell proliferation assay (CellTiter-Glo, 72 hours). To be noted: Homo sapiens, read-out: IC50 anti-proliferative. Format: cell-based. Background: ATP-based viability assays read luminescence as a measure of living cells.
The next data set concerns AZ521. In words: Cell proliferation assay (CellTiter-Glo, 72 hours). The data set is classed as cell-based. To be noted: Homo sapiens, AZ-521, read-out: IC50 anti-proliferative.
For the next data set, the system named is SNU-216. In words: Cell proliferation assay (CellTiter-Glo, 72 hours). To be noted: Homo sapiens, read-out: IC50 anti-proliferative. The data set is classed as cell-based.
The test system of another data set is KATOIII. In words: Cell proliferation assay (CellTiter-Glo, 72 hours). The data set is classed as cell-based. The settings on record: Homo sapiens, KATO III, read-out: IC50 anti-proliferative.
The subject of another data set is NUGC-4. In words: Cell proliferation assay (CellTiter-Glo, 72 hours). Format: cell-based. To be noted: Homo sapiens, read-out: IC50 anti-proliferative.
Data set [3] deals with gastric tumor cell lines with high MET mRNA levels. In words: cells. To be noted: Homo sapiens, read-out: average IC50 value. The procedure:
(§2) These cell lines were obtained from American Type Culture Collection (ATCC), Japanese Collection of Research Bioresources (JCRB), Shanghai Institutes of Biological Sciences, CAS (SIBS), Korean Cell Line Bank (KCLB) or National Institutes of Health (NIH). […] Cell viability was measured after 72 hours using a CellTiter-Glo Luminescent Cell Viability Assay Kit (Promega, WI, USA) according to the manufacturer’s instructions.
(§3) The MET mRNA expression level in each human gastric cell lines was evaluated with real-time PCR. Glyceraldehyde-3-phosphate dehydrogenase (GAPDH) was considered as the internal control. The amplification was performed in a 20 μl mixture containing 10 μl of TaqMan Universal PCR Master Mix (Invitrogen, CA, USA) with UNG, 1 μl of the MET (Hs01565584_m1) or GAPDH (Hs02786624_g1) TaqMan Gene Expression Assay (Thermo, CA, USA), and 5 μl of cDNA solution. Each sample was analyzed in triplicate on an Agilent Technologies Stratagenes Mx3005P (CA, USA). Relative MET mRNA expression is presented as the fold-change, which was calculated using the 2^ (-ΔΔCt) method.

In data set [4] the test system is gastric tumor cell lines with low MET mRNA levels. In words: cells. The settings on record: Homo sapiens, read-out: average IC50 value. The method, then:
as §2, §3

For the next data set, the system named is AKT phosphorylation. In words: Western blot of signaling molecules in SNU-5 cells. Format: cell-based, human. From the text: (§4) The SNU-5 cell line was selected for western blotting analysis of signaling molecules. […] Immunoreactive proteins (p-AXL, t-ERK and p-ERK) were visualized using the ECL system (Pierce Chemical, TX, USA). Other proteins were detected by Odyssey (LI-COR, NE, USA) at a wavelength of 700 nm or 800 nm. […] Tumor lysates were subjected to western blotting. The following antibodies were purchased from Cell Signaling Technology (Cell Signaling Technology Cat#3148, RRID : AB_1031042): anti-MET (Cell Signaling Technology Cat# 3148, RRID : AB_1031042), anti-p-MET Y1234/1235 (Antibodies-Online Cat# ABIN461461, RRID : AB_10786128), anti-AXL (Cell Signaling Technology Cat# 4566, RRID : AB_2062563), anti-p-AXL Y702 (5724S), anti-ERK (9107S), anti-p-ERK Thr202/Tyr204 (4370S), anti-p-AKT Ser473 (4060S), and anti-AKT (Cell Signaling Technology Cat# 2920, RRID : AB_1147620).
For orientation: A western blot detects proteins with antibodies after separation by electrophoresis.

A further data set relates to AXL phosphorylation. In words: Western blot of signaling molecules in SNU-5 cells. The data set is classed as cell-based, human.
Description: as §4

A further data set deals with ERK phosphorylation. In words: Western blot of signaling molecules in SNU-5 cells. The data set is classed as cell-based, human.
Description: as §4

For another data set, the system named is MET phosphorylation. In words: Western blot of signaling molecules in SNU-5 cells. The data set is classed as cell-based, human.
Description: as §4

A short description of data set [5]: Body weight of tumor-bearing mice in efficacy studies. Format: in vivo. To be noted: all groups, 1-20 mg/kg. The procedure: Human tumor xenografts were established in female BALB/cA nude mice (5-6 weeks old) by administering the SNU-5 and MKN-45 cells, which have high MET expression levels. For efficacy studies in patient-derived tumor xenograft (PDX) mouse models, MET-overexpressing GA0046 and GA3121 tumors (obtained from Crownbio, CA, USA) were established by directly implanting surgical tissues into immunodeficient mice. […] The subcutaneous tumor size and body weight were measured twice weekly. The tumor volumes were determined by measuring two perpendicular diameters with calipers and calculated as (length × width^2)/2.

Sequence of RET (P07949 29-1114): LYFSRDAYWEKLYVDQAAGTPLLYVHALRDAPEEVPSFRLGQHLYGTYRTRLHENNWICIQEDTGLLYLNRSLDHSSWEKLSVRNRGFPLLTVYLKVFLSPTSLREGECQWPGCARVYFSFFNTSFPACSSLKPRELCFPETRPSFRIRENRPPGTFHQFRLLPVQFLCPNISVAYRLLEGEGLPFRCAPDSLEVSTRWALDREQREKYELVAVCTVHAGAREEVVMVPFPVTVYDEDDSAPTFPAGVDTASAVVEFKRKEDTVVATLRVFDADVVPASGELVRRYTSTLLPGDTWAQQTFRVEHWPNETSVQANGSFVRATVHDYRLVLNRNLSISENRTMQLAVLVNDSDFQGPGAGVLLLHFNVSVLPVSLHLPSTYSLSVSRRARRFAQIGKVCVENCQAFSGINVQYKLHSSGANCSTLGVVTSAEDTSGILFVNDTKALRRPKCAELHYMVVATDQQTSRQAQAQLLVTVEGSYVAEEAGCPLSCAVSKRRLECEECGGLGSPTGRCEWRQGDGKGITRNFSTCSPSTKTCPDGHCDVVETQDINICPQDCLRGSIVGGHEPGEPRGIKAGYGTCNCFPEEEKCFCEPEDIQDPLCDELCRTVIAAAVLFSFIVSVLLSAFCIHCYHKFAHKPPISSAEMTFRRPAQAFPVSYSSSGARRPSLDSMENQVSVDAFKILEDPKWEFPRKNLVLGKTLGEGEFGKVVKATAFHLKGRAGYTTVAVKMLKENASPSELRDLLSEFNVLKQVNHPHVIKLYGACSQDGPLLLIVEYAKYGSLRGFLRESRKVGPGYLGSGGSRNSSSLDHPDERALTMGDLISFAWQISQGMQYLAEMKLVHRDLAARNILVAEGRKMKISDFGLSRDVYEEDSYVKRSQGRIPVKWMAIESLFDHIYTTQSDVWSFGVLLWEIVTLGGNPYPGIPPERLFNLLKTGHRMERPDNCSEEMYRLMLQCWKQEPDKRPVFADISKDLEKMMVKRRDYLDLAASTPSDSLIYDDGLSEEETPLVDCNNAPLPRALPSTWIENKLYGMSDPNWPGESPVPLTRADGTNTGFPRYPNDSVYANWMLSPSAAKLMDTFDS
Sequence of FLT3 (P36888 27-993): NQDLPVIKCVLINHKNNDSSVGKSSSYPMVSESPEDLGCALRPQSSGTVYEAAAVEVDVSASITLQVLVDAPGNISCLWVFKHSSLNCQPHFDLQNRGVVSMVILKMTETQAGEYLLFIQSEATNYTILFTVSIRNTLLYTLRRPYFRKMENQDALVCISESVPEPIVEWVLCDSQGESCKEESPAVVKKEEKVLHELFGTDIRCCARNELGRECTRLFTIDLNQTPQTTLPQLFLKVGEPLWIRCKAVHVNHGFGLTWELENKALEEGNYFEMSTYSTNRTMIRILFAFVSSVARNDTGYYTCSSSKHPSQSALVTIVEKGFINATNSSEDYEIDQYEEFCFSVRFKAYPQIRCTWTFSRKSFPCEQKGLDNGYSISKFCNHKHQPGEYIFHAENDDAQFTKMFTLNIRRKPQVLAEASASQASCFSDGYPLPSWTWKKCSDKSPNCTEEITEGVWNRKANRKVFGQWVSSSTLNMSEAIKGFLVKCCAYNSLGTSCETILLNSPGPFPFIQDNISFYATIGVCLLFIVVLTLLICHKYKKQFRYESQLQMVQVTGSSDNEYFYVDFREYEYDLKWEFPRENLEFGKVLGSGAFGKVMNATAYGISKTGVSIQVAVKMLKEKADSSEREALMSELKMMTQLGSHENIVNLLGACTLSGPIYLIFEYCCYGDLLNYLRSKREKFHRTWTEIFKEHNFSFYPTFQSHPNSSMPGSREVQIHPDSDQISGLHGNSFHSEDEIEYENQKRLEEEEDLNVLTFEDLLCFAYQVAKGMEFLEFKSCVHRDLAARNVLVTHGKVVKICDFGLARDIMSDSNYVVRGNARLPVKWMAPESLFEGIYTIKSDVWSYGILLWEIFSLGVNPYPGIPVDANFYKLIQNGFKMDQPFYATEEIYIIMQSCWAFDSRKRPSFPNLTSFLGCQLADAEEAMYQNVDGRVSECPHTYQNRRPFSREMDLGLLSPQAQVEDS
Sequence of LnyA (P07948 whole entry): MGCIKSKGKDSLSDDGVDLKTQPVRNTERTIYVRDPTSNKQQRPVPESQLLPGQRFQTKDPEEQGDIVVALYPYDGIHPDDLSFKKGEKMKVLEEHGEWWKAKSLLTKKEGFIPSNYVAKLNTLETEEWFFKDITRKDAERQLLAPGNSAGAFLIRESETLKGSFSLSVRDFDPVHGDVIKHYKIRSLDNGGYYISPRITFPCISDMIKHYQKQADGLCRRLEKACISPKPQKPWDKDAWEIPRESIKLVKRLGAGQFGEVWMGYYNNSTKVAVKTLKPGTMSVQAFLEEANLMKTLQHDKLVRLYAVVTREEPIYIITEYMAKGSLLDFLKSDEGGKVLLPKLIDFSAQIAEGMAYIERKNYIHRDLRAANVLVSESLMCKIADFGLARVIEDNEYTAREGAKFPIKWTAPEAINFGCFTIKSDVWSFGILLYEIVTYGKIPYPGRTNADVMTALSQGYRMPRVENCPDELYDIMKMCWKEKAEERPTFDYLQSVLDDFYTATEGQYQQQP
Description for FLT1: (§5) The IC50 values were determined by measuring phosphorylation of peptide substrate poly at ATP concentrations at the Km.
Description for FLT3: as §5
Description for FRK: as §5
Description for HIPK4: as §5
Description for ITK: as §5
Description for LnyA: as §5
Description for RET: as §5
Description for SNU-16: (§6) Human gastric tumor cell lines with high MET expression levels, namely, the GTL-16, MKN45, SNU638, Hs746T, SNU-620, and SNU-5 cell lines, were used in the assay. These cell lines were obtained from American Type Culture Collection (ATCC), Japanese Collection of Research Bioresources (JCRB), Shanghai Institutes of Biological Sciences, CAS (SIBS), Korean Cell Line Bank (KCLB) or National Institutes of Health (NIH). […] Cell viability was measured after 72 hours using a CellTiter-Glo Luminescent Cell Viability Assay Kit (Promega, WI, USA) according to the manufacturer’s instructions.
Description for SNU-216: as §6

What is called IC50 is the concentration at which inhibition is half-maximal. Usually IC90 stands for the concentration needed for an effect of 90%. Turning to `Cc1c(C(=O)Nc2ccc(Oc3ccnc4cc(OCC(C)(C)O)ccc34)c(F)c2)c(=O)n(-c2ccccc2)n1C` [CT053], the IC50 amounted to 8.6 nM against FLT3; 520 nM on FRK; 180 nM at HIPK4; 240 nM at ITK; 330 nM on Fer; 6100 nM on FLT1. In addition, the IC50 at RET was 200 nM; at LnyA it was 240 nM; in the data set with HUVECs [1] (read-out: IC50, percentage area of tube formation (+ VEGF)), 20 nM; in the data set with HUVECs [2] (read-out: IC50, percentage area of tube formation (+ HGF)) it was 310 nM; in the data set with SNU-16, over 10000 nM; in the data set on AZ521, over 10000 nM. For the same molecule, the IC50 with SNU-216 was over 10000 nM; with KATOIII, over 10000 nM; in the data set with NUGC-4, over 10000 nM; in data set [3], 95 nM; in data set [4] it was over 10000 nM. Besides, the IC90 in the data set on HUVECs [1] (read-out: IC90, Tube Area % Effect (+ VEGF)) was 170 nM; in the data set on HUVECs [2] (read-out: IC90, Tube Area % Effect (+ HGF)), over 3000 nM. The “suppression of induced AKT activity” value in the data set on AKT phosphorylation is given as “a much higher concentration of CT053 was required”. In addition, the “concentration that completely suppressed AXL phosphorylation” value in the data set with AXL phosphorylation was 100 nM. Also, the “concentration that completely suppressed phosphorylation of ERK” value in the data set on ERK phosphorylation amounted to 1000 nM. In addition, the “concentration that completely suppressed phosphorylation of MET” value in the data set on MET phosphorylation was 1000 nM. Further, the “change in body weight” value in data set [5] is “no significant change in body weight”.
